From PubChem BioAssay (NCI)
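Grown in 96-well plates, cells were treated for 48 hours with each compound at five concentrations. Insufficient inhibition: endpoint recorded as highest concentration tested. TGI denotes the concentration required for complete inhibition of growth.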

Experiments:
Assay in all cases: inhibition of tumour cell growth, NCI panel, 48 h
UO-31 renal = tested on: UO-31 renal
U251 CNS = tested on: U251 CNS
UACC-62 melanoma = tested on: UACC-62 melanoma
SF-539 CNS = tested on: SF-539 CNS
PC-3 prostate = tested on: PC-3 prostate
BT-549 breast = tested on: BT-549 breast
COLO 205 colon = tested on: COLO 205 colon
CAKI-1 renal = tested on: CAKI-1 renal
HCC-2998 colon = tested on: HCC-2998 colon
SF-268 CNS = tested on: SF-268 CNS
OVCAR-3 ovarian = tested on: OVCAR-3 ovarian
SN12C renal = tested on: SN12C renal
A549 NSCLC = tested on: A549 NSCLC
MDA-MB-231 breast = tested on: MDA-MB-231 breast
SW-620 colon = tested on: SW-620 colon
HOP-92 NSCLC = tested on: HOP-92 NSCLC
SK-MEL-5 melanoma = tested on: SK-MEL-5 melanoma
NCI-H522 lung = tested on: NCI-H522 lung

SMILES | TGI (UO-31 renal) [µM] | TGI (U251 CNS) [µM] | TGI (UACC-62 melanoma) [µM] | TGI (SF-539 CNS) [µM] | TGI (PC-3 prostate) [µM] | TGI (BT-549 breast) [µM] | TGI (COLO 205 colon) [µM] | TGI (CAKI-1 renal) [µM] | TGI (HCC-2998 colon) [µM] | TGI (SF-268 CNS) [µM] | TGI (OVCAR-3 ovarian) [µM] | TGI (SN12C renal) [µM] | TGI (A549 NSCLC) [µM] | TGI (MDA-MB-231 breast) [µM] | TGI (SW-620 colon) [µM] | TGI (HOP-92 NSCLC) [µM] | TGI (SK-MEL-5 melanoma) [µM] | TGI (NCI-H522 lung) [µM]
Cc1cccc(N/C(=C(/C(Cl)=C(Cl)Cl)[N+](=O)[O-])n2nnc3ccccc32)c1 | 31 | 26.9 | 37 | 32 | 30.1 | 36.5 | 32.8 | 31.4 | > 100 | 31.1 | 35.5 | 32.9 | 36 | 27.1 | 29.2 |  |  | 
CC(C)CCCC(C)[C@H]1CC[C@H]2n3c(nnc3-c3ccccc3)CCC[C@]12C (some centres not stated) | 23.2 | 23.5 | 27.3 | 25.1 | 44.9 | 41.7 | 14.8 | 29.7 | 0.0669 | 28.2 | 25.2 | 27.5 | 28 | 37.9 | 47.5 | 37 | 25.1 | 
COc1ccc(CC2Cc3ccccc3CCN2)cc1OC (configuration not stated) | > 50 | > 50 | > 50 | > 50 | > 50 | > 50 | 21.4 | > 50 | > 50 | > 50 | > 50 | > 50 | > 50 | > 50 | > 50 | > 50 |  | 
CC[C@]12C=CCN3CC[C@@]4(c5cc(Br)c(OC)c([N+](=O)[O-])c5N(C)[C@H]4[C@@](O)(C(=O)OC)[C@@H]1OC(C)=O)[C@@H]32 | > 100 | > 100 | > 100 | > 100 | > 100 | > 100 | > 100 | > 100 |  | > 100 | > 100 | > 100 | > 100 | > 100 | > 100 |  | > 100 | 
COC(=O)c1ccccc1/C=C1\Cc2c(ccc3c2CCC3)C1=O | > 100 | > 100 | > 100 | > 100 | > 100 | > 100 | > 100 | > 100 | > 100 | > 100 | > 100 | > 100 | > 100 |  | > 100 | > 100 | > 100 | > 100
CN1CCC23c4c5ccc(Oc6nnnn6-c6ccccc6)c4OC2c2[nH]c4ccccc4c2CC3(O)C1C5 (configuration not stated) | 3.18 | 3.65 | 3.52 |  | 15 | 36.7 |  | 4.77 | 3.3 | 21.2 | 22.5 | 8.67 | 13.1 | 4.16 | 6.14 | 7.71 |  | 4.01
CCSc1nnc(Sc2c3ccccc3nc3ccccc23)s1 | 23.7 | > 57.9 | 31.6 | 21.9 | 46.7 | 31.7 | 7.01 | 15.5 | 25.3 | > 56.4 | 29.4 | 59.9 | > 100 | 56.6 | > 40.8 | > 44.8 | 38.6 | 
O=C1Cc2c([nH]c3ccc(Br)cc23)-c2cc(Br)ccc2N1 | > 100 | > 100 | > 100 | > 100 | > 100 | > 100 | > 100 | > 100 | > 100 | > 100 |  |  | > 100 | > 100 | > 100 | > 100 | > 100 | 
COc1cccc(Nc2nc(C)c([N+](=O)[O-])c(Nc3cccc(OC)c3)n2)c1 | > 100 | > 100 | 38.8 | > 100 | > 100 | 8.14 | 44.9 |  |  | > 100 | 57.2 | > 100 | > 100 | > 100 | > 100 | > 100 | 77.2 | > 100
COc1ccc(NC(=S)Nc2cc(C)ccn2)cc1 | > 100 | > 100 | > 100 | > 100 | > 100 | > 100 | > 100 | > 100 | > 100 | > 100 |  |  |  | > 100 | > 100 | > 100 | > 100 | 
COC(=O)c1ccccc1/C=C1\Cc2c(C)c3c(c(C)c2C1=O)CCC3 | > 100 | > 100 | > 100 | > 100 | > 100 | > 100 | > 100 | > 100 | > 100 | > 100 | > 100 | > 100 | > 100 |  | > 100 | > 100 | > 100 | > 100
O=C1C2=Cc3ccccc3CCN2c2ccccc21 | > 100 | > 31.6 |  | 27.2 | > 62.7 | 33 | > 56 | 30.4 |  | > 74.2 | > 100 | > 31.6 | > 100 | > 59.4 | > 31.6 | > 92.3 | 34.1 | > 82.7
Cc1c2c(cc3c1C(=O)C(=O)C([C@@H](C)CO)=C3O)C(C)(C)CCC2 | 38.6 | 53.8 | > 100 |  | 48.2 | > 100 | > 100 | > 100 |  | > 100 | > 100 | > 100 | > 100 | > 100 | > 100 | > 100 | 86.9 | 62.8
CC1=CC[C@H](C[C@H](C#CCCCC2OCCO2)O[Si](C(C)C)(C(C)C)C(C)C)C(=O)CC1 | > 100 | > 100 | > 100 |  | > 100 | > 100 | > 100 | > 100 | > 100 | > 100 | > 100 | > 100 | > 100 | > 100 | > 100 | > 100 | > 100 | 
N=c1c2ccccc2nc2oc3cc([N+](=O)[O-])ccc3n12 | 32.3 | 29.6 | > 100 | 65.4 | > 100 | 91.6 | > 100 | > 100 | > 100 | 85.2 | 70.8 | > 100 | > 100 | 60.5 | > 100 |  | > 100 | > 100
O=c1[nH]c2cccc([N+](=O)[O-])c2c(=O)n1-c1ccc(Cl)cc1 |  | 59.7 | 23.1 | 26.2 | 38.1 | 23.7 | 16.6 | 19.5 | 31.4 | 30.4 | 23.5 | 33.9 | 36.3 | 34.3 | 27.1 | 47.9 | 24 | 
O=[N+]([O-])/C(C(Cl)=C(Cl)Cl)=C1\Nc2ccc([N+](=O)[O-])cc2N1 | 27.5 | > 100 | > 100 |  | > 100 | > 100 | > 100 | > 100 |  | > 100 | > 100 | > 100 | > 100 | > 100 |  | > 100 | > 100 | 63
COc1cc(C(=O)NNC(=O)c2cc(Br)ccc2NC(=O)c2cccs2)cc(OC)c1OC | 50.2 | 44.6 | 34.1 | 30 | > 100 | > 100 | 25.5 | > 100 |  | 29.3 | > 100 | 60.3 | 61.3 |  | > 100 | 46.9 | 26.7 | 53.3
COc1ccccc1C[C@@H]1OC2(C=CC(=O)CC2SC(=O)c2ccccc2)O[C@H]1Cc1ccccc1OC (some centres not stated) | 2.54 | 2.81 | 7 | 3.08 | 4.71 | 2.74 | 3.16 | 5.24 |  | 2.44 | 4.93 | 6.49 | 8.67 | 7.23 | 1.35 | 3.31 | 3.1 | 
Cc1cc(S(=O)(=O)Nc2nc(N)nc(N3N=CCC3C)n2)c(SCC(=O)O)cc1Cl (configuration not stated) |  | > 10 | > 10 | > 10 | > 10 | > 10 | > 10 | > 10 | > 10 | > 10 | > 10 | > 10 | > 10 | > 10 | > 10 |  | > 10 | > 10
O=C1CC(Br)c2c(Br)sc(Br)c21 (configuration not stated) | 34.7 | 31.1 | 30.8 | 43.7 | 39.4 | 36.7 | 33.9 | 38.8 |  | 62.4 | 32.9 | 29 | > 100 | 35.1 | 26.5 | 31.5 | 35.4 | 24.4
CCCCNC(=S)Nc1nc(C(=O)NNC(=S)NCC)cs1 | > 100 | > 100 | > 100 | > 100 | > 100 | > 100 | > 100 | > 100 | > 100 | > 100 | > 100 | > 100 | > 100 | > 100 | > 100 |  | > 100 | > 100
[O-][n+]1nc(N2CCOCC2)nc2ccccc21 | > 100 | > 100 | > 100 | > 100 | > 100 | > 100 | > 100 | > 100 | > 100 | > 100 |  | > 100 | > 100 | > 100 | > 100 |  |  | > 100
CN(CCC(=O)N1CC(CCl)c2ccc([N+](=O)[O-])cc21)CCC(=O)N1CC(CCl)c2ccc([N+](=O)[O-])cc21 (configuration not stated) |  | > 100 | 24.7 | 27.7 | > 100 | > 100 | 31.6 | 48 | 18.2 | 28.5 | 23.7 | 41.1 | > 100 | 44.5 | 29 |  | 24.8 | 21.7
OCC1OC(NC(=S)NCCC(F)(F)C(F)(F)C(F)(F)C(F)(F)C(F)(F)C(F)(F)F)C(O)C(O)C1O (configuration not stated) | > 100 | > 100 | > 100 | > 100 | > 100 | > 100 | > 100 | > 100 | > 100 | > 100 | > 100 | > 100 | > 100 | > 100 | > 100 | > 100 | > 100 | 
CC(=O)OCC(OC(C)=O)C1C[C@H]2O[C@@H]3[C@H](C[C@H]2O1)O[C@@]1(C[C@@H]3C)C[C@H](C)[C@@H]2O[C@]3(C[C@@H]2O1)C[C@H]1O[C@H]2[C@H](C)[C@H]4OC(=O)C[C@H]5CC[C@@H]6OC7[C@H]8O[C@]9(CC[C@H]%10CC(=O)[C@H](CC[C@H]%11C[C@@H](C)C(=O)C(C[C@@H]4O[C@H]2C[C@H]1O3)O%11)O%10)CC8O[C@@H]7[C@@H](O9)[C@H]6O5 (some centres not stated) | > 1 | > 1 | > 1 |  | > 1 | 0.411 | 0.0749 | > 1 |  | > 1 | > 1 | > 1 | > 1 | > 1 | > 1 | > 1 | > 1 | 0.00322
NC(CSS(=O)(=O)O)=NC1CC2CCC1C2 (configuration not stated) |  | > 100 | > 100 | > 100 | > 100 | > 100 | > 100 | > 100 |  | > 100 | > 100 | > 100 | > 100 | > 100 | > 100 | > 100 | > 100 | > 100
